Measured values reported in patent US10479766B2, “Deuterated CFTR potentiators” (Vertex Pharmaceuticals (Europe) Limited, priority 2011, dated 2019).
Several values for one entry are separate records, joined by “and”; a condition that tells them apart may be missing. Equal entries are not always repeated. Where two headings read alike, the source gives them in different places.

Assays:
[1] = Pharmacokinetics in rats after oral gavage; format: in vivo; details: rat, PO 10 mg/kg in 100% PEG400, plasma; for half-life: plasma, po, 10 mg/kg
Experimental: Ivacaftor, compound 105 and compound 106 were discrete dosed to rats via oral gavage (PO). Each compound was administered at a dose of 10 mg/kg to three rats (N=3 rats/compound; total of 9 rats in the study). […] Blood samples were centrifuged to obtain plasma. Plasma samples were analyzed for concentrations of the dosed compound at each time point using LC-MS/MS. The limit of quantitation of each compound was 1 ng/mL.

[2] = system: patients with cystic fibrosis carrying at least one copy of the G551D-CFTR mutation; details: phase III trials; cited from earlier work
[3] = individual animals, read-out: t1/2 (hr), individual animal (converted)
[4] = mean of N=3 rats, read-out: t1/2 (hr), Mean (converted)

| t1/2 (hr), individual animal ([1]; individual animals) | half-life [1, 3] [h] | half-life [1, 4] [h] | Compound | lung function and other key indicators of the disease (sweat chloride levels, likelihood of pulmonary exacerbations, body weight) [2] |
| --- | --- | --- | --- | --- |
| 16.33 h and 14.39 h | 13.8 | 14.8 | [2H]C([2H])([2H])C(c1cc(C(C([2H])([2H])[2H])(C([2H])([2H])[2H])C([2H])([2H])[2H])c(NC(=O)c2c[nH]c3ccccc3c2=O)cc1O)(C([2H])([2H])[2H])C([2H])([2H])[2H] [Compound 105, N-(2,4-Di-(tert-butyl-d9)-5-hydroxyphenyl)-4-oxo-1,4-dihydroquinoline-3-carboxamide] |  |
| 14.28 h and 11.92 h | 13.5 | 13.2 | [2H]C([2H])([2H])C(c1cc(C(C)(C)C)c(NC(=O)c2c[nH]c3ccccc3c2=O)cc1O)(C([2H])([2H])[2H])C([2H])([2H])[2H] [Compound 106, N-(2-(tert-Butyl)-4-(tert-butyl-d9)-5-hydroxyphenyl)-4-oxo-1,4-dihydroquinoline-3-carboxamide] |  |
| 12.43 h and 10.01 h | 9.03 | 10.5 | CC(C)(C)c1cc(C(C)(C)C)c(NC(=O)c2c[nH]c3ccccc3c2=O)cc1O [Ivacaftor, N-(2,4-di-tert-butyl-5-hydroxyphenyl)-4-oxo-1,4-dihydroquinoline-3-carboxamide, reference compound] | marked levels of improvement |
